Results as given in ChEMBL document CHEMBL1133829, “Design and synthesis of a novel class of histone deacetylase inhibitors” (Bioorg Med Chem Lett, 2001).

What was measured:
Histone deacetylase 1 [1] = molecular target: T1, Histone deacetylase 1 (Homo sapiens, UniProt Q13547); experiment: Concentration of compound required for acetylation of histone-4 in human T24 cancer cells; format: functional, cell-based, Cancer cell lines
Histone deacetylase 1 [2] = molecular target: T1, Histone deacetylase 1; experiment: In vitro inhibition of partially purified recombinant human Histone deacetylase 1
HCT-116 = experiment: In vitro antiproliferative activity against human colon cancer HCT 116 cells determined by […] assay; format: functional, cell-based
Mus musculus [3] = experiment: In vivo inhibition of non small cell lung carcinoma A549 tumor in nude mice administered with a daily dose of 20 mg/kg for 21 days; format: functional; conditions: A549, 504 h
Mus musculus [4] = experiment: In vivo inhibition of non small cell lung carcinoma A549 tumor in nude mice administered with a daily dose of 40 mg/kg for 21 days; format: functional; conditions: A549, 504 h
Mus musculus [5] = experiment: In vivo inhibition of non small cell lung carcinoma A549 tumor in nude mice administered with a daily dose of 50 mg/kg for 21 days; format: functional; conditions: A549, 504 h

T1 sequence (Q13547 whole entry): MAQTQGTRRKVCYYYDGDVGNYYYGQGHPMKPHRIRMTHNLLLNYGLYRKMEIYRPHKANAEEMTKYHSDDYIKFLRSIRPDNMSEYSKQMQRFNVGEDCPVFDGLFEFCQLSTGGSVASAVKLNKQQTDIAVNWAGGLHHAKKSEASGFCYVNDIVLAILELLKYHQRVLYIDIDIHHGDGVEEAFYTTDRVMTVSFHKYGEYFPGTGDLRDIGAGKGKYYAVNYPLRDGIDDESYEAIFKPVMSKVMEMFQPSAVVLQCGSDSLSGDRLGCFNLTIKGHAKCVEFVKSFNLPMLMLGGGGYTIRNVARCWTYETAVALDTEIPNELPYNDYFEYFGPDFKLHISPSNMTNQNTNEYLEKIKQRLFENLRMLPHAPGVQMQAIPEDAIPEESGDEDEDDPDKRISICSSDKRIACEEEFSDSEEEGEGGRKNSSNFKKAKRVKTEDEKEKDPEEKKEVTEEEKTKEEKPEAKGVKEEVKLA

Row | EC50 (Histone deacetylase 1 [1]) [µM] | IC50 (Histone deacetylase 1 [2]) [nM] | EC50 (HCT-116) [nM] | SMILES | inhibition in vivo at 20 mg/kg (Mus musculus [3]) [%] | inhibition in vivo at 40 mg/kg (Mus musculus [4]) [%] | inhibition in vivo at 50 mg/kg (Mus musculus [5]) [%]
1 | 5 | 60 | 400 | COc1ccc(S(=O)(=O)Nc2ccc(/C=C/C(=O)NO)cc2)cc1 | – | – | –
2 | – | – | 1000 | CC(/C=C/C(=O)NO)=C\[C@@H](C)C(=O)c1ccc(N(C)C)cc1 [TRICHOSTATIN] | – | – | –
3 | 5 | 100 | 2000 | O=C(/C=C/c1ccc(NS(=O)(=O)c2ccc(Cl)c(Cl)c2)cc1)NO | – | – | –
4 | > 25 | – | 4000 | O=C(/C=C/c1ccc(NS(=O)(=O)c2ccc(Cl)cc2Cl)cc1)NO | – | – | –
5 | 1 | – | 200 | COc1ccc(S(=O)(=O)Nc2ccc(/C=C/C(=O)NO)cc2)cc1OC | 41 | 50 | 57
6 | 10 | – | 700 | Cc1ccc(S(=O)(=O)Nc2ccc(/C=C/C(=O)NO)cc2)cc1 | – | – | –
7 | > 25 | 1000 | 22000 | O=C(Cc1ccc(NS(=O)(=O)c2ccccc2)cc1)NO | – | – | –
8 | – | – | 3000 | O=C(/C=C/c1ccc(NS(=O)(=O)c2ccccc2)cc1)NO | – | – | –
9 | – | – | 1000 | O=C(/C=C/c1ccc(NS(=O)(=O)c2ccc(Cl)cc2)cc1)NO | – | – | –
10 | > 25 | > 25000 | 30000 | CC(C)C(Cc1ccc(NS(=O)(=O)c2ccccc2)cc1)C(=O)NO (stereo unspecified) | – | – | –
11 | 5 | – | 2000 | O=C(CCc1ccc(NS(=O)(=O)c2ccccc2)cc1)NO | – | – | –
